# According to ChEMBL document CHEMBL1201862, “PubChem BioAssay data set” (2004):
#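 Tested at 5 concentrations; 48 h exposure; 96-well plates; endpoints linearly interpolated, else capped at highest concentration. Abbreviation: GI50, concentration required for 50% inhibition of growth.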 Activity calls are given as the source filed them. Rule as the data show it: active = GI50 up to about 1.1 µM and inactive = higher.
# What was measured:
# Experiment in all cases: inhibition of tumour cell growth, NCI panel, 48 h
# [1] = test system: MCF7
# [2] = test system: SK-MEL-28
# [3] = test system: ACHN
# [4] = test system: BT-549
# [5] = test system: SW-620
# [6] = test system: KM12
# [7] = test system: OVCAR-8
# [8] = test system: U-251
# [9] = test system: MDA-N
# [10] = test system: OVCAR-4
# [11] = test system: SR
# [12] = test system: SK-MEL-2
# [13] = test system: LOX IMVI
# [14] = test system: A549
# [15] = test system: NCI-H23
# [16] = test system: UO-31
# [17] = test system: OVCAR-3
# [18] = test system: SK-MEL-5
# [19] = test system: M14
# [20] = test system: HOP-62
# [21] = test system: EKVX
# [22] = test system: NCI-H460
# [23] = test system: MOLT-4
# [24] = test system: UACC-62
# [25] = test system: SNB-75
# [26] = test system: SF-295
# [27] = test system: SN12C
# [28] = test system: Hs-578T
# [29] = test system: MDA-MB-231
# [30] = test system: K562
# [31] = test system: COLO 205
# [32] = test system: RXF 393
# [33] = test system: UACC-257
# [34] = test system: 786-0
# [35] = test system: A498
# [36] = test system: HOP-92
# [37] = test system: HT-29
# [38] = test system: CAKI-1
# [39] = test system: HCT-116
# [40] = test system: T47D
# [41] = test system: HCC 2998
# [42] = test system: TK-10
# [43] = test system: SK-OV-3
# [44] = test system: SF-268
# [45] = test system: HCT-15
# [46] = test system: SNB-19
# [47] = test system: IGROV-1
# [48] = test system: MDA-MB-435
# [49] = test system: OVCAR-5
# [50] = test system: PC-3
# [51] = test system: DU-145
# [52] = test system: NCI-H522
# [53] = test system: NCI-H226
# [54] = test system: RPMI-8226
# [55] = test system: Malme-3M
# [56] = test system: HL-60
# [57] = test system: SF-539
# [58] = test system: NCI/ADR-RES
smiles,measurement,setting,value
COC1C(=O)CCC2(CO2)C1(O)C1(C)OC1CC=C(C)C (stereo unspecified),GI50,[1],11.8 µM (inactive)
same,GI50,[2],17.3 µM (inactive)
same,GI50,[3],17.6 µM (inactive)
same,GI50,[4],50.6 µM (inactive)
same,GI50,[5],18.4 µM (inactive)
same,GI50,[6],16.2 µM (inactive)
same,GI50,[7],30.9 µM (inactive)
same,GI50,[8],13.9 µM (inactive)
same,GI50,[9],41 µM (inactive)
same,GI50,[10],> 100 µM (inactive)
same,GI50,[11],13.9 µM (inactive)
same,GI50,[12],27.6 µM (inactive)
same,GI50,[13],5.21 µM (inactive)
same,GI50,[14],10.6 µM (inactive)
same,GI50,[15],46.7 µM (inactive)
same,GI50,[16],28.4 µM (inactive)
same,GI50,[17],25.2 µM (inactive)
same,GI50,[18],14.7 µM (inactive)
same,GI50,[19],11.1 µM (inactive)
same,GI50,[20],14.7 µM (inactive)
same,GI50,[21],93.5 µM (inactive)
same,GI50,[22],27.3 µM (inactive)
same,GI50,[23],25.1 µM (inactive)
same,GI50,[24],13.7 µM (inactive)
same,GI50,[25],69.8 µM (inactive)
same,GI50,[26],29.8 µM (inactive)
same,GI50,[27],> 100 µM (inactive)
same,GI50,[28],22.1 µM (inactive)
same,GI50,[29],> 100 µM (inactive)
same,GI50,[30],16.9 µM (inactive)
same,GI50,[31],16.6 µM (inactive)
same,GI50,[32],22.9 µM (inactive)
same,GI50,[33],23.2 µM (inactive)
same,GI50,[34],32.4 µM (inactive)
same,GI50,[35],26.3 µM (inactive)
same,GI50,[36],25.8 µM (inactive)
same,GI50,[37],23.1 µM (inactive)
same,GI50,[38],38.1 µM (inactive)
same,GI50,[39],11.3 µM (inactive)
same,GI50,[40],> 100 µM (inactive)
same,GI50,[41],17.7 µM (inactive)
same,GI50,[42],22.9 µM (inactive)
same,GI50,[43],51.6 µM (inactive)
same,GI50,[44],33.5 µM (inactive)
same,GI50,[45],19 µM
same,GI50,[46],15 µM (inactive)
same,GI50,[47],16.9 µM (inactive)
same,GI50,[48],24.5 µM (inactive)
same,GI50,[49],51.5 µM (inactive)
same,GI50,[50],28.3 µM (inactive)
same,GI50,[51],19.5 µM (inactive)
COc1ccc2c(c1)CN1C(=N2)CSC1c1cccc(Br)c1 (stereo unspecified),GI50,[1],10.6 µM (inactive)
same,GI50,[2],11.9 µM (inactive)
same,GI50,[52],22.6 µM (inactive)
same,GI50,[3],19.8 µM (inactive)
same,GI50,[4],26.2 µM (inactive)
same,GI50,[5],15.8 µM (inactive)
same,GI50,[6],19.1 µM (inactive)
same,GI50,[7],69.8 µM (inactive)
same,GI50,[8],26.5 µM (inactive)
same,GI50,[9],4.1 µM (inactive)
same,GI50,[10],36.9 µM (inactive)
same,GI50,[11],5.33 µM (inactive)
same,GI50,[12],24.2 µM (inactive)
same,GI50,[13],23.9 µM (inactive)
same,GI50,[53],4.86 µM (inactive)
same,GI50,[14],30.6 µM (inactive)
same,GI50,[15],17.7 µM (inactive)
same,GI50,[16],17.5 µM (inactive)
same,GI50,[18],5.71 µM (inactive)
same,GI50,[19],52.1 µM (inactive)
same,GI50,[20],46.8 µM (inactive)
same,GI50,[21],22.1 µM (inactive)
same,GI50,[22],30.1 µM (inactive)
same,GI50,[23],6.82 µM (inactive)
same,GI50,[24],17.8 µM (inactive)
same,GI50,[25],14.9 µM (inactive)
same,GI50,[26],30.5 µM (inactive)
same,GI50,[27],20.4 µM (inactive)
same,GI50,[28],53.6 µM (inactive)
same,GI50,[29],> 100 µM (inactive)
same,GI50,[30],5.89 µM (inactive)
same,GI50,[31],31.7 µM (inactive)
same,GI50,[32],19.9 µM (inactive)
same,GI50,[33],20.3 µM (inactive)
same,GI50,[34],17.8 µM (inactive)
same,GI50,[36],8.61 µM (inactive)
same,GI50,[54],6.44 µM (inactive)
same,GI50,[37],20 µM (inactive)
same,GI50,[38],16.3 µM (inactive)
same,GI50,[39],19 µM (inactive)
same,GI50,[55],60.1 µM (inactive)
same,GI50,[40],52.7 µM (inactive)
same,GI50,[41],14.8 µM (inactive)
same,GI50,[56],3.58 µM (inactive)
same,GI50,[42],59.8 µM (inactive)
same,GI50,[43],> 100 µM (inactive)
same,GI50,[44],52.8 µM (inactive)
same,GI50,[45],11 µM
same,GI50,[57],15.4 µM (inactive)
same,GI50,[46],47.3 µM (inactive)
same,GI50,[58],48.8 µM (inactive)
same,GI50,[47],43.9 µM (inactive)
same,GI50,[48],6.15 µM (inactive)
same,GI50,[49],> 100 µM (inactive)
same,GI50,[50],17.7 µM (inactive)
